The source of these data is US8999383B2, “Compositions of GnRH related compounds and processes of preparation” (Merrion Research III Limited, priority 2008, dated 2015).

Non-standard residues stand in square brackets, D forms with d. Residues, ends and D or L forms follow the SMILES beside them. dPhe(4-NH2) = Nc1ccc(C[C@@H](N)C(=O)O)cc1; dPhe(4-Cl) = N[C@H](Cc1ccc(Cl)cc1)C(=O)O; Phe(4-NH2) = Nc1ccc(C[C@H](N)C(=O)O)cc1; d2Nal = N[C@H](Cc1ccc2ccccc2c1)C(=O)O; Lys(iPr) = CC(C)NCCCC[C@H](N)C(=O)O; d3Pal = N[C@H](Cc1cccnc1)C(=O)O

This series is described as follows: Gelation of acyline in pH 6.8 buffer with sodium caprate and Tween 80 (filtration, reverse phase HPLC). The series is classed as physicochemical. The method, then:
Different concentrations of acyline composition are prepared by adding acyline to pH 6.8 buffer solution either at room temperature or 37° C. All acyline solutions contain 0.6 mg/mL sodium caprate (sodium caprate is referred as C10 in the figures). All samples are centrifuged and filtered prior to analysis. Samples are analyzed by reverse phase HPLC with UV detection. 10 mg acyline is transferred into […] volumetric flask. A pH 6.8 buffer solution is preheated to 37° C. Then, 100 mL pre-heated buffer solution and 0.6 mg/mL sodium caprate is added to the flask to prepare a 0.1 mg/mL acyline sample. In a similar manner, Tween 80 is added to prepare a 0.1 mg/mL acyline solution with 1% Tween 80. Samples are shaken in a temperature controlled water bath at 37° C. 5 mL samples are taken at 1, 5, 10, 15, 20, 30 and 120 minutes after mixing acyline with the buffer solution. Samples are filtered immediately through 0.45 μm filters and the first 3 mL is discarded. Filtered samples are analyzed, undiluted, by reverse phase HPLC with UV detection. All samples are prepared in duplicate and the concentration was obtained for the analysis from the mean of the duplicates. The result of comparison of 1% and 0% Tween 80 at 0.1 mg/mL acyline sample is graphically recorded in FIG. 5. […] A similar experimental procedure as Example 4 is used to prepare acyline sample for example 5. The result of comparison of 5 mg/mL, 1 mg/mL, 0.1 mg/mL and 1% Tween in phosphate buffer containing 0.6 mg/mL of sodium caprate and 0.1 mg/mL acyline is graphically recorded in FIG. 6. […] A similar experimental procedure as Example 4 is used to prepare acyline sample for example 6. The result of comparison of 1% and 1 mg/mL Tween 80 in 0.1 and 0.01 mg/mL acyline sample is graphically recorded in FIG. 7. […] A similar experimental procedure as Example 4 is used to prepare acyline sample for example 7. The result of comparison of 0.01 mg/mL acyline samples having 0.1%, 0.5% and 1% Tween 80 is graphically recorded in FIG. 8.

With `CC(=O)Nc1ccc(C[C@H](NC(=O)[C@H](CO)NC(=O)[C@@H](Cc2cccnc2)NC(=O)[C@@H](Cc2ccc(Cl)cc2)NC(=O)[C@@H](Cc2ccc3ccccc3c2)NC(C)=O)C(=O)N[C@H](Cc2ccc(NC(C)=O)cc2)C(=O)N[C@@H](CC(C)C)C(=O)N[C@@H](CCCCNC(C)C)C(=O)N2CCC[C@H]2C(=O)N[C@H](C)C(N)=O)cc1` [acyline, Ac-D2Nal-D4Cpa-D3Pal-Ser4Aph(Ac)-D4Aph(Ac)-Leu-ILys-Pro-DAla-NH2] (Ac-[d2Nal][dPhe(4-Cl)][d3Pal]S[Phe(4-NH2)](Ac)[dPhe(4-NH2)](Ac)L[Lys(iPr)]P[dA]-NH2), the gelation of acyline entry is listed as “significantly reduces the gelation” (0.01 mg/mL acyline sample, 1% Tween 80 (versus 0.1% and 0.5%)); “insufficient to reduce the gelation” (0.1 mg/mL acyline, pH 6.8 buffer, 37° C., 0.6 mg/mL sodium caprate alone (below CMC), 0% Tween 80); “reduces gelation” (0.1 mg/mL and 0.01 mg/mL acyline sample, 1% Tween 80).
